# Columns and labels:
# [1] = test system: ovariectomized mouse (type I osteoporosis model animal); assay: Change of bone mass in type I osteoporosis model animal (ovariectomized mice, dosing 3 months, femur pQCT); format: in vivo
# Excerpt: Female Slc: ddy mice of 4 weeks old (Japan SLC, Inc.) was operated with ovariectomy to use as a type I osteoporosis model animal. Also, in order to delete the affection by invasion, a group which is operated without ovariectomy (Sham operation) is set (Sham group). These were the […] model animals.
# Animal bedding were changed twice a week and always to use all fresh one, CRF-1 (Oriental Yeast Co., Ltd.) is fed as feed and deionized water as drinking water were freely given. Their body weights were weighed twice a week by the end of the experiment.
# Fargesin was dissolved in 30 mL of a solution (it is referred to as “TD solution”, hereinbelow) containing 4% dimethyl sulfoxide (it is referred to as “DMSO”, hereinbelow) and 4% TWEEN 80 (both were purchased from Wako Pure Chemical Industries, Ltd.) so as that a dosage amount of fargesin becomes 20 mg/kg body wt/day, or […].
# After the surgical operation, the mice were adapted to the circumstances for 5 days, and then they were divided to the Sham group, the negative control, the positive control group, and the test substance administration group (6 mice per group). The ovariectomized mice were used for the negative control group, the positive control group, and the test substance administration group.
# Fargesin solution was daily administrated to the ovariectomized mice in the test group at the dosage of 20 mg/kg body wt/day (it is referred to as “F20 group”, hereinbelow) or 100 mg/kg body wt/day (it is referred to as “F100 group”, hereinbelow) for 3 month p.o.
# In order to study effects of fargesin on the bone, the femur, the largest long bone, was used.
# The mice in each group were killed by the cervical dislocation under diethyl ether anesthesia. Their right femurs were excised with muscles, and the muscles were removed from the femur after the excision. Lengths of the excised bones from the mice in the groups were measured, and they were dipped in 70% ethanol to be fixed.
# In FIG. 3, the bone was shown schematically. The long bone (tubular bone) was composed of two thick and rounded ends (epiphysis), and thin and long part between them (a shaft). The bone extends to longitudinal direction, depending on the growth of a plate-shape epiphyseal cartilage (a growth plate) between the epiphysis and the shaft. The region of 1 mm proximal side from the A position for a measurement was set to that from 1 mm proximal region (epiphysis) from the distal growth plate as decided as the measurement region.
# The bone density was measured by using the peripheral quantitative computed tomography (pQCT, XCT Research SA+, Stratec Medizintechnik GmbH, Merk Ltd) (FIG. 3B). The measurement was performed under the conditions: a diameter of 90 mm, a voxel size of 0.12 mm, a CT speed of 10 mm/sec, and a block number of 1. Bone mineral content (mg/mm), bone density (mg/cm^3), and cross section of the bone (mm^2) of the entire of tomographic images (whole bone area) were calculated.
# Next, the area of the cancellous bone was extracted (peel mode 20), and then the bone mineral amount (mg/mm), the section of the bone (mm^2), and the bone density (mg/cm^3) were calculated. Further to the cortical bone, the bone mineral amount (mg/mm), the bone density (mg/cm^3), the section of the bone (mm^2), a bone thickness (mm), the periosteum perimeter of the cortical bone (mm), and the endosteum perimeter of the cortical bone (mm) were calculated.
# Based on the bone diameter and the bone density measured by the pQCT, SSI was calculated. SSI is composed of Polar SSI (torsion strength in polar coordination), X-axis SSI (strength in X axis, three-point bending strength), and Y-axis SSI (Y axis strength, three-point lateral bending strength), and it is expressed by the following general equation.
# Wherein, Z is the coefficient of the cross section (mm^3), CBD is the bone density of the cortical bone (mg/cm^3), and ND is the physiological bone density (1200 mg/cm^3). The coefficient Z is shown as the following equation.
# [2] = test system: ovariectomized mouse (OVX mouse); assay: Bone formation in ovariectomized mouse (OVX mouse), dosing after bone resorption induction period, femur pQCT; format: in vivo; details: 80 μg/kg/day s.c.
# Method: Four-week-old female Slc; ddy mice (Japan SLC, Inc.) were purchased, and they were divided into 8 groups without acclimate keeping (6 mice per group). They were anesthetized by using 50 mg/kg of pentobarbital to be ovariectomized (it is referred to as “OVX” herein below) or to have Sham operation (it is referred to as “Sham” herein below) under the anesthesia which is given by intraperitoneal administration of 50 mg/kg of Somnopentyl (pentobarbital sodium).
# From the second day of the ovariectomy (or Sham operation), each group was maintained under the condition of 12 hour light/dark cycle, 23±3 degree centigrade as the room temperature, and humidity 55±5% for 2 months as the bone resorption induction period. The animal bedding was exchanged twice a week and all fresh bedding was used at all times. CRF-1 (Oriental Yeast Co., Ltd.) as the feed and deionized water as drinking water were freely given.
# After two month period from the test start, the bone resorption induction period, the test substance were given to each group at the amount shown in the following Table 7 for 3 month.
# Ninety % of MeOH fraction (Shin-i) obtained in Example 1 and Fargesin (may refer to “Far” thereafter) were respectively dissolved into TD solution at the concentration shown in Table 7, and then they were administrated per os.
# Human PTH (1-34) (herein below, it is sometimes referred to as “hPTH (1-34)”) were dissolved in distilled water at the concentration of 80 μg/kg/day, and it was administrated subcutaneously.
# After 3 month from the administration start, the mice belonging to all of the groups were weighed. They were anesthetized by using diethylether, and were collected their blood from their hearts, and then they were died. Then, organs such as the uterus, the white adipose tissue (WAT), the brown adipose tissue (BAT), the liver, the spleen, and both left and right lower extremities were removed. The left and right lower extremities were separated into the femurs and the tibias, and they were stored in 70% EtOH under the room temperature.
# The muscles were removed from the obtained femur (right), and then its bone density and the like were measured by using pQCT employed in Example 1 under the following conditions.
# Recognition of contour (CONTMODE): 2 (auto search of ROI)
# Recognition method of cancellous bone: Surface & Area
# Ration of cancellous bone area to all of the cross section areas: 35%
# CORTMODE used in CORTBD: 1* * Voxels not larger than the standard value for distinguishing the cortical bone from the cancellous bone (threshold: threshold) were omitted. Each tissue weight was also measured.
# TH value used in CORTBD: 690
# Among the all data of cancellous bone density obtained from pQCT, both of the highest and the lowest data were deleted to obtain the Median. As to the other parameters were treated as the same as this, the graph was made with N=6. Statistical analysis was performed by using the Dennett's two-sided t test.
# TRACP5b = assay: Serum TRACP5b of OVX mice (bone metabolism marker); format: in vivo, mouse; details: 80 μg/kg/day s.c.; compared to the OVX group
# Method: All obtained blood from the heart under diethyl ether anesthesia at dissection was stored at 4 degree centigrade for 24 hours. Then, the blood was centrifuged at 3,000 rpm (4,000×g) for 15 minutes to separate the sera.
# According to the protocol of Mouse TRAP™ Assay (Immuno-diagnostic Systems Ltd, the United of Kingdom), TRACP5b in the obtained sera was determined.
# [3] = OVX mice, B100 group: 100 μg/kg body wt/day i.p.
# [4] = OVX mice, B100 group: 100 μg/kg body wt/day i.p. (text prints F100 group)
# [5] = OVX mice, B100 group: 100 μg/kg body wt/day i.p., right femur, pQCT
# [6] = OVX mice, 3 months dosing after 2-month induction
compound,measurement,setting,value
"C[C@]12CC[C@@H]3c4ccc(O)cc4CC[C@H]3[C@@H]1CC[C@@H]2O [β-estradiol, reference compound]",Average body weight during mouse growth,"[1]; B100 group: 100 μg/kg body wt/day i.p., versus NC group",lower than that of NC group mice
same,Cortical bone Bone density,[1]; [3],867.475 ± 13.724 mg/mL
same,Cortical bone Bone thickness,[1]; [3],0.365 ± 0.038 mm
same,Cortical bone adventitia diameter,[1]; [3],7.9895 ± 0.096 mm
same,Cortical bone lining membrane diameter,[1]; [3],5.699 ± 0.229 mm
same,Polar axis bone strength (Table 3),[1]; [3],1.946 ± 0.107 mm^3
same,"bone mineral mass, cancellous bone",[1]; [3],0.725±0.110 mg/mm
same,"bone mineral mass, whole bone",[1]; [3],3.325±0.203 mg/mm
same,"bone mineral mass, cortical bone",[1]; [4],2.163±0.230 mg/mm
same,"cross section area of the bone, cortical bone",[1]; [4],2.4825±0.230 mm^2
same,Polar axis strength (polar coordinates strength),"[1]; OVX mice, B100 group: 100 μg/kg body wt/day i.p., SSI from pQCT",1.376±0.088 mm^3
same,Bone density Cancellous bone,[1]; [5],399.050 ± 53.851 mg/mL
same,Bone density whole bone,[1]; [5],652.025 ± 28.386 mg/mL
"hPTH(1-34): Human PTH (1-34), dissolved in distilled water, administrated subcutaneously [reference compound]","Bone density of cancellous bone, relative value",[2]; 5M Sham = 100,76.1
same,"Bone density of cortical bone, relative value",[2]; 5M Sham = 100,92.2
same,"Bone density of the whole bones, relative value",[2]; 5M Sham = 100,86.0
same,Bone strength (polar coordinates torsion strength),[2]; compared to Control OVX group,significantly increased
same,Bone density of cancellous bone,[2]; [6],88.83 ± 30.90 mg/cm^2
same,Bone density of cortical bone,[2]; [6],906.50 ± 32.19 mg/cm^2
same,Bone thickness of cortical bone,[2]; [6],0.22 ± 0.03 mm
same,Cross section area of cortical bone,[2]; [6],1.69 ± 0.25 mm^2
same,Perimeter of cortical bone adventitia,[2]; [6],8.37 ± 0.26 mm
same,Perimeter of cortical bone lining membrane,[2]; [6],6.98 ± 0.34 mm
same,Bone density of the whole bones,"[2]; OVX mice, 3 months dosing after 2-month induction, right femur, pQCT",452.25 ± 49.00 mg/cm^2
same,level of TRACP5b in the sera,TRACP5b,did not show major alteration

# Source: patent US20130253048A1, “Pharmaceutical Composition for Promoting Osteogenesis Containing Axial-equatorial Aryl-oriented Furofuran-type Lignan, and Pharmaceutical Preparation, Functional Food Product, and Health Food Product Comprising Composition” (ERINA CO., INC., priority 2010, published 2013)
